In patent US20240174718A1, “RYANODINE RECEPTOR INHIBITOR COMPOUNDS AND METHODS RELATING THERETO” (Vanderbilt University, priority 2022, published 2024):

System: Casq2-/- mice
Assay: Catecholamine-induced arrhythmia challenge (ECG) in CPVT mice
Assay type: in vivo, mouse
Description: Triple crossover study design for in vivo arrhythmia challenge. N=22 Casq2^−/− mice were randomly assigned to vehicle (DMSO), 3 mg/kg, or 30 mg/kg ent-B1 and crossed over twice with one-week washouts between treatment. Mice underwent catecholamine-induced arrhythmia challenge with isoproterenol 15 min after intraperitoneal drug administration. […] Ectopic beats are denoted by p (PVC), c (couplet), and vt (ventricular tachycardia). Normal sinus beats are not marked. […] Individual data are shown with median and interquartile range. Bonferroni-adjusted P values by pairwise Wilcoxon matched-pairs signed rank test. *P=0.020 vs Veh; #P=0.039 vs Veh. […] Bonferroni-adjusted P values by pairwise Wilcoxon matched- pairs signed rank test. #P=0.0058 vs Vehicle.
ECG recording—Nine male and thirteen female Casq2^−/− mice 17-20 weeks old were randomly assigned to a three-by-three crossover design such that every treatment sequence was sampled. Mice were pretreated with intraperitoneal injection of vehicle (DMSO), 3 mg/kg ent-B1, or 30 mg/kg of ent-B1 fifteen minutes prior to baseline ECG recording. Mice were then injected with 3 mg/kg isoproterenol intraperitoneally. Recordings were continued for 5 minutes or for 1 minute after cessation of ventricular ectopy. A washout period of one week was used between treatments. The Vanderbilt Institutional Animal Care and Use Committee (IACUC) approved the use of mice in these studies (protocol #M1900057-01). Animals had free access to food and water.
ECG analysis—LabChart (AD Instruments, Inc) was used to analyze ECG recordings by a reviewer blinded to treatment dose. ECG records were examined to quantify premature ventricular contractions (PVCs), duration of ventricular tachycardia, heart rate, and baseline ECG parameters (PR, QRS and QT interval). Arrhythmias were scored on a five point ordinal scale based on the number of PVCs with the following criteria: 1) zero point for no PVCs; 2) one point for isolated PVCs; 3) two points for bigeminy (alternating sinus beats and PVCs); 4) three points for couplets (two consecutive PVCs); and 5) four points for three or more consecutive PVCs (ventricular tachycardia).
All tests were two-sided and a p-value cutoff of <0.05 was used to denote significance. Concentration-response curves for RyR2 single-channel, [^3H]ryanodine ligand binding and intact myocyte assays were generated using non-linear regression with the equation: Y=Bottom+(Top−Bottom)/(1+(IC50/X)^HillSlope) using least square regression, no weighting, and no constrains on the parameters. The distributions of relative RyR2 open probability at each [ent-B1] were normalized by taking the log of each sample. For the 3×3 crossover in vivo ECG study, a pre-test was conducted using a mixed model with fixed effects of sequence and period; mice were treated as random effects.
Casq2^−/− mice are a validated model for preclinical testing of antiarrhythmic drugs for CPVT. […] The same doses of ent-B1 were tested in a triple-crossover design with each mouse receiving vehicle (DMSO), 3 mg/kg, and 30 mg/kg with a one-week washout period between experiments. […] ECGs were analyzed in blinded fashion and ventricular arrhythmias quantified. […] We also scored the mice based on the ventricular arrhythmia severity, i.e., premature ventricular complexes (PVCs)<bigeminy<couplets<ventricular tachycardia. […]

CCCCC[C@@H]1OC(=O)[C@@H](C)N(C)C(=O)[C@H](CCCCC)OC(=O)[C@@H](C)N(C)C(=O)[C@H](CCCCC)OC(=O)[C@@H](C)N(C)C1=O (single isomer, unassigned) [ent-B1]
reduction in ventricular ectopy burden (30 mg/kg i.p., Casq2-/- mice, isoproterenol challenge): 70%
incidence of VT (3 and 30 mg/kg i.p. vs vehicle): dose-dependent reduction
number of total ectopic beats (3 and 30 mg/kg i.p. vs vehicle): dose-dependent reduction
suppression of ventricular tachycardia (only at the higher dose tested, 30 mg/kg): statistically significant suppression
arrhythmia risk scores (ordinal scale 0-4, vs vehicle): lower
